Patent US8546421B1, “Oncogenic-RAS-signal dependent lethal compounds” (The Trustees of Columbia University in the City of New York, priority 2007, dated 2013)
“And” between values parts separate entries of the source, which are not always exact repeats. Equal entries are not always repeated. “Also recorded” adds a separate entry of the source.

What was measured:
VDAC3 in HT1080 cells = experiment: Drug sensitivity after shRNA knockdown of VDAC3; type: cell-based, human; settings: shRNAs targeting VDAC3, alamar blue
Protocol: (§1) On day one, 3×10^5 Calu-1 cells or 2×10^5 HT1080 cells were seeded in 10-cm dishes; on day 2, frozen virus stock was thawed at 37° C., hexadimethrine bromide (polybrene) (Sigma, cat.#H9268) was added to the virus solution at a final concentration of 8 μg/mL and growth media from cell culture was replaced with the virus/polybrene mixture. The culture was returned to the tissue culture incubator for 2 hours, with rocking of the dishes every 30 min in order to prevent drying. After 2 h, 10 mL growth medium was added, the culture was incubated for 2 days, and cells stably expressing shRNA were selected by adding puromycin (Sigma, cat.#P9620) at a final concentration of 1.5 μg/mL.
(§2) On the day of experiment, assay plates were prepared by seeding 3,000 HT1080, HT1080-pLKO, HT1080-TfR1 KD, Calu-1, Calu-1-pLKO, or Calu-1-509 cells per well in 36 μL of growth media to black, clear bottom 384-well plates. Also, assay plates were prepared by seeding 1,500 shRNA infected HT1080 or Calu-1 cells per well. Cells in assay plates were treated with each lethal compound in a 2-fold dilution series by transferring 4 μL solution from a 10× lethal plate of Erastin, Compound 3, Compound 27, or Compound 36. […] Percent growth inhibition (% GI) was calculated using fluorescence intensity values.

A549/ATCC = experiment: NCI60 anti-cancer screening; settings: for GI 100%: A549/ATCC, Non-small cell lung carcinoma; for GI50 / CC50: Homo sapiens; for GI50: A549; for CC50: A549, read-out: LC 50%
NCI-H460 = experiment: NCI60 anti-cancer screening; settings: for GI50 / CC50: Homo sapiens; for GI50 / GI 100%: NCI-H460; for CC50: NCI-H460, read-out: LC 50%; for GI 100%: Non-small cell lung carcinoma
HOP-62 = experiment: NCI60 anti-cancer screening; type: cell-based; settings: Non-small cell lung carcinoma
[1] = system: BJ-TERT/LT/ST/RAS^V12 cells; experiment: Effect of cell cycle inhibitors on Compound 36-induced cell death; type: cell-based, human; settings: apigenin, monastrol, olomoucine, nocodazole, hydroxyurea, colchicine, rapamycin
Protocol: BJ-TERT/LT/ST/RAS^V12 cells were seeded in a 384-well assay plate at a concentration of 4,000 cells per well in 32 μL culture volume. Cells were treated with cell cycle inhibitors by transferring 4 μL of 500 μM apigenin (Sigma, cat.#A3145), 1.5 mM monastrol (Sigma, cat.#M8515), 1 mM olomoucine (Sigma, cat.#00886), 2 μM Nocodazole (Sigma, cat.#M1404), 6 mM Hydroxy-urea (Sigma, cat.#H8627), 0.1 μM colchicine (Sigma, cat.#D6165), or 50 μM Rapamycine (Sigma, cat.#RO395) in growth media to the assay plate. […] The assay plate was incubated for 24 hours and alamar blue was added to the assay plate at a final concentration of 10%.

NCI-H226 = experiment: NCI60 anti-cancer screening; settings: for GI50 / CC50: Homo sapiens; for GI50 / GI 100%: NCI-H226; for CC50: NCI-H226, read-out: LC 50%; for GI 100%: Non-small cell lung carcinoma
SNB-19 = experiment: NCI60 anti-cancer screening; settings: for GI50 / CC50: Homo sapiens; for GI50 / GI 100%: SNB-19; for CC50: SNB-19, read-out: LC 50%; for GI 100%: CNS Cancer
OVCAR-5 = experiment: NCI60 anti-cancer screening; settings: for GI50 / CC50: Homo sapiens; for GI50 / GI 100%: OVCAR-5; for CC50: OVCAR-5, read-out: LC 50%; for GI 100%: Ovarian Cancer
HT1080 cells = experiment: Alamar blue assay with bioactive suppressors in HT1080; type: cell-based, human; settings: 150 μM DFOM, 10 μM U0126, 50 μM SU6656, or 100 μM Vitamin E
Protocol: as §2

[2] = system: 60 different human cancer cell lines (the NCI60 panel); experiment: NCI60 anti-cancer screening, whole panel; type: cell-based
Protocol: NCI60 anti-cancer screening (“NCI60 test”) is a system that provides an opportunity to assess a drug candidate's potency and selectivity at a relatively early stage of drug discovery. […] Such compounds would be expected to kill sensitive cancer cells while having minimal effect on healthy cells in a predetermined concentration range. NCI60 anti-cancer screening makes use of 60 cancer cell lines from different human tissue origins. Cells are seeded on a 96-well plate, treated with lethal compounds in 5-point, 10-fold dilution series pattern starting at 100 μM (i.e. 10 nM, 100 nM, 1 μM, 10 μM, 100 μM) for 2 days, and measured for cell viability using sulforhodamine B dye. The optical densities of treated samples are determined using a plate reader and percent growth value is calculated by processing the optical density value.
The entire NCI60 test is replicated at least twice to ensure consistency of the data and to determine accurate GI50, TGI and LC50 values. The panel of results for each candidate compound in the NCI60 test is known as the “sensitivity profile.”

[3] = system: BJeH, BJeHLT, BJeLR and DRD cells; experiment: Cell growth inhibition by stereoisomers of Compound 27; settings: Homo sapiens
mice = experiment: Maximum tolerated dose in mice; type: in vivo; settings: single intraperitoneal injection at 100, 200 or 400 mg/kg
Protocol: (§3) The maximum tolerated dose of Compound 27 was tested in mice.
(§4) Each mouse in the study was administered a single intraperitoneal injection of Compound 27 dissolved in sterile PBS at 100 mg/kg, 200 mg/kg, or 400 mg/kg.

[4] = Maximum tolerated dose in mice; type: in vivo; settings: mouse, in vivo, ip, single intraperitoneal injection in sterile PBS
Protocol: as §3, §4

[5] = system: Calu-1 cells expressing shRNAs targeting HRAS, NRAS or KRAS; experiment: Drug sensitivity after shRNA knockdown of RAS; type: cell-based, human; settings: alamar blue
Protocol: as §1, §2

Compound	effect of VDAC3 knockdown on compound-induced cell death (VDAC3 in HT1080 cells)	GI 100% (A549/ATCC) [µM]	GI50 (A549/ATCC) [nM]	CC50 (A549/ATCC) [nM]	GI50 (NCI-H460) [nM]	CC50 (NCI-H460) [nM]	GI 100% (NCI-H460) [µM]	GI50 (NCI-H226) [nM]	CC50 (NCI-H226) [nM]	GI 100% (NCI-H226) [µM]	GI50 (SNB-19) [nM]	CC50 (SNB-19) [nM]	GI 100% (SNB-19) [µM]	GI50 (OVCAR-5) [nM]	CC50 (OVCAR-5) [nM]	GI 100% (OVCAR-5) [µM]	further results
COCCOC(=O)C1=C(C)NC2=C(C(=O)CC(c3ccc(Cl)cc3)C2)C1c1ccccc1F (stereo not shown) [Compound 3]	suppressed																
C=C1CCC2C(C)(C)CCC[C@]2(C)C1CC/C(C)=C\CC/C(C)=N/NC(N)=S (stereo partly shown) [Compound 36]		2.4	1110	5150	626	5020	2.02	480	4550	1.66	1050	5000	2.29	492	4330	1.62	GI50 (HOP-62; Homo sapiens): 405 nM; LC50 (HOP-62; Homo sapiens): 3770 nM; GI 100% (HOP-62): 1.42 µM; effect of cell cycle blockers on compound-induced cell death [1]: None of cell cycle blockers were effective
COC(=O)c1ccc(C2c3[nH]c4ccccc4c3CC(C(=O)OC)N2C(=O)CCl)cc1 (stereo not shown) [Compound 27]	not affected	>10	2510	> 10000	1430	6740	3.11	688	> 10000	2.79	2350	> 10000	7.41	2240	> 10000	5.71	treatments that inhibit compound-induced cell death in HT1080 cells (HT1080 cells): iron chelators, MEK inhibitors or non-receptor tyrosine kinase inhibitors effectively inhibited; difference in sensitivity between resistant and sensitive cell lines [2]: up to 10^4 fold; potency / selectivity in NCI60 (in words) [2]: nanomolar (nM) concentration range; EC50 [3]: ~0.05 µg/mL and ~100 nM; mortality (mice): None of the mice died; MTD [4]: > 400 mg/kg; sensitivity of Calu-1 cells after RAS shRNA compared with parental cells [5]: more resistant; also recorded: less effective
